Reference: publication PMC5218823, “Acute effects of ethanol on GABAA and glycine currents in the lateral habenula neurons of young rats” (Open journal of neuroscience, 2013)

Assays:
[1] = test system: T1, glycine receptors (GlyRs) of lateral habenula neurons; assay: whole-cell patch clamp, inhibition of glycine current; format: cell-based, Rattus norvegicus; conditions: 500 μM glycine, co-applied; VH -60 mV; pH 7.4; 22-24 °C; antagonist
T1 construct: gene Glra1

[2] = test system: T1, glycine receptors (GlyRs) of lateral habenula neurons; conditions: VH -60 mV; pH 7.4; 22-24 °C; agonist
[3] = test system: T2, GABAA receptors (GABAARs) of lateral habenula neurons; conditions: 10 μM GABA, co-applied; VH -60 mV; pH 7.4; 22-24 °C; voltage-independent; extrapolated beyond tested 10.8-43.2 mM
T2 construct: gene Gabra1

[4] = test system: T1, glycine receptors (GlyRs) of lateral habenula neurons; conditions: 30 μM glycine; VH -60 mV; pH 7.4; 22-24 °C; positive modulator

O=C1C[C@@H]2OCC=C3CN4CC[C@]56c7ccccc7N1[C@H]5[C@H]2[C@H]3C[C@H]46 [strychnine]
IC50 [1]: 0.22 µM

NCC(=O)O [glycine]
EC50 [2]: 83.3 µM

CCO [ethanol]
IC50 [3]: 94100 ± 29100 µM
% of control at 43.2 mM [4]: 148 ± 14%
